Experimental data from ChEMBL document CHEMBL2331125, “Anthraquinone Derivatives as Potent Inhibitors of c-Met Kinase and the Extracellular Signaling Pathway” (ACS Med Chem Lett, 2013).
Calls of active or inactive are those of the source. No cut-off for these calls is given here.

Target: Hepatocyte growth factor receptor (Mus musculus) (UniProt P16056)
Assay: Inhibition of TPR-Met phosphorylation in mouse BAF3 cells at 10 uM after 2 hrs by Western blot analysis
Assay type: cell-based

Hepatocyte growth factor receptor (Mus musculus), sequence (P16056 whole entry): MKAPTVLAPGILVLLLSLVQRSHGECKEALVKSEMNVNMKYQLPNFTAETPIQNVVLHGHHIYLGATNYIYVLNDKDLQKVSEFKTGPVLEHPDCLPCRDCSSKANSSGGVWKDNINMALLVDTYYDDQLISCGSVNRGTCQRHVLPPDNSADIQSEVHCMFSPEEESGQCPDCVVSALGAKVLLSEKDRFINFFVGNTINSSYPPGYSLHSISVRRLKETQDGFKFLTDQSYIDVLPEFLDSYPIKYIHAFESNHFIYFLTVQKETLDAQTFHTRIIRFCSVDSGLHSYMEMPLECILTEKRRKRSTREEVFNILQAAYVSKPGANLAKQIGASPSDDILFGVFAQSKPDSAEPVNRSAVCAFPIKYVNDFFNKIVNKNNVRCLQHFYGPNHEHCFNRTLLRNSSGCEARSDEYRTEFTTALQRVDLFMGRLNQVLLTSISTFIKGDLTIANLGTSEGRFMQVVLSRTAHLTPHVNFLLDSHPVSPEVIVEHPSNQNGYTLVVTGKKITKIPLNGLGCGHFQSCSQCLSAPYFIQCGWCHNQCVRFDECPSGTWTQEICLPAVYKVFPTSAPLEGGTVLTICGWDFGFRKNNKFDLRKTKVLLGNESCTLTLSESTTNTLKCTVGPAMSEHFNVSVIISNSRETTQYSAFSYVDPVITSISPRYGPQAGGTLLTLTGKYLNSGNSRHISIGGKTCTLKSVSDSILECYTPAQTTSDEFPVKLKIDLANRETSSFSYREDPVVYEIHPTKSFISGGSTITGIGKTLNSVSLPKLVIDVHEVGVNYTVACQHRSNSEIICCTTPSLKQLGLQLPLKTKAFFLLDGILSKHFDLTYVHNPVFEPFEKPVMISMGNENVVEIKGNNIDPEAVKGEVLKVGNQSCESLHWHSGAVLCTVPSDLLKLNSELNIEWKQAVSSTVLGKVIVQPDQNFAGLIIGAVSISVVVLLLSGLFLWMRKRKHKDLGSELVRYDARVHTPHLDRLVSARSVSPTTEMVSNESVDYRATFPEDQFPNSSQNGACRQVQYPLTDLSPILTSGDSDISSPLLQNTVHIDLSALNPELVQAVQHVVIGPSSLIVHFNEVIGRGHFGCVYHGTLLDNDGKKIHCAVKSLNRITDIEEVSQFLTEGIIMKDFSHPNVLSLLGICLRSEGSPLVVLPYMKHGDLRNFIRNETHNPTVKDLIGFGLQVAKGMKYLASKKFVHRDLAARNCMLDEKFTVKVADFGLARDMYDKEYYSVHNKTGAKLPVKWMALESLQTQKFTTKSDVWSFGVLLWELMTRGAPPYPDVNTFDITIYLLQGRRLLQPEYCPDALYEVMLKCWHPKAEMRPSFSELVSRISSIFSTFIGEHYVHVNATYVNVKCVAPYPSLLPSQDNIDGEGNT

SMILES | inhibition
Cc1cc(-c2ccc(Nc3cc(S(=O)(=O)O)c(N)c4c3C(=O)c3ccccc3C4=O)c(C)c2)ccc1N | inactive
Nc1ccc(-c2ccc(Nc3cc(S(=O)(=O)O)c(N)c4c3C(=O)c3ccccc3C4=O)cc2)cc1 | inactive
CC(=O)Nc1ccc(-c2ccc(Nc3cc(S(=O)(=O)O)c(N)c4c3C(=O)c3ccccc3C4=O)cc2)cc1 | inactive

Next, values leading:

inhibition | SMILES
inactive | Nc1c(S(=O)(=O)O)cc(Nc2ccc(-c3ccc(Nc4ncccn4)cc3)cc2)c2c1C(=O)c1ccccc1C2=O
inactive | Cc1cc(-c2ccc(Nc3cc(S(=O)(=O)O)c(N)c4c3C(=O)c3ccccc3C4=O)c(C)c2)ccc1Nc1cc(S(=O)(=O)O)c(N)c2c1C(=O)c1ccccc1C2=O
inactive | Cc1cc(Nc2cc(S(=O)(=O)O)c(N)c3c2C(=O)c2ccccc2C3=O)ccc1-c1ccc(Nc2cc(S(=O)(=O)O)c(N)c3c2C(=O)c2ccccc2C3=O)cc1C
inactive | Nc1c(S(=O)(=O)O)cc(Nc2ccc(-c3ccc(Nc4cc(S(=O)(=O)O)c(N)c5c4C(=O)c4ccccc4C5=O)cc3)cc2)c2c1C(=O)c1ccccc1C2=O
inactive | Nc1c(S(=O)(=O)O)cc(Nc2ccc(Cc3ccc(Nc4cc(S(=O)(=O)O)c(N)c5c4C(=O)c4ccccc4C5=O)cc3)cc2)c2c1C(=O)c1ccccc1C2=O
